Values of other authors in patent publication US20080305171A1, “PYRROLOPYRAZINE, FORMULATIONS, METHODS OF MANUFACTURE, AND METHODS OF USE THERE” (priority 2007, published 2008).

Conditions: ethanol:phosphate buffer solution, increasing temperature and pH

## CN1CCN(C(=O)OC2c3nccnc3C(=O)N2c2ccc(Cl)cn2)CC1 (racemic) [COMPOUND II, 6-(5-chloro-2-pyridyl)-5-[(4-methyl-1-piperazinyl)carbonyloxy]-7-oxo-6,7-dihydro-5H-pyrrolo[3,4-b]pyrazine]
  chemical and isomeric stability in solution: both degrades and racemizes
